One test deals with A. fumigatus. Briefly: Planktonic MIC, CLSI guidelines. As to conditions: Aspergillus fumigatus, read-out: MIC. Format: cell-based. As for the experimental part:
(§1) Minimum inhibitory concentrations were determined using CLSI guidelines (Beattie & Krysan, 2021; Wiederhold, 2021). All yeasts were cultured overnight in 3 mL YPD at 30° C., then washed twice in sterile PBS. Two-fold serial dilutions of each compound were prepared in RMPI+MOPS pH 7 (Gibco RPMI 1640 with L-glutamine [11875-093] and 0.165M 352 MOPS), then 1×10^3 cells were added per well. Plates were incubated at 37° C. for 24 hours (C. albicans and S. cerevisiae) or 72 hours (C. neoformans). For A. fumigatus and F. oxysporum wells were inoculated with 1.25×10^4 conidia. Plates were incubated at 37° C. for 48 hours for A. fumigatus and 72 hours for F. oxysporum. All MICs are defined as the well with complete growth inhibition as determined by visual inspection with the exception of MICs of fluconazole against C. albicans where the MIC is defined as at least 50% reduction in growth compared to the control.

In another test the test system is C. glabrata. Briefly: Planktonic MIC, CLSI guidelines. The format is cell-based. The note with it: Nakaseomyces glabratus; strain KK2001. As for the experimental part:
as §1

In another test the test system is C. neoformans. The experiment in a line: Planktonic MIC, CLSI guidelines. Format: cell-based. The note with it: Cryptococcus neoformans. As for the experimental part: as §1
The subject of the next test is F. oxysporum. Briefly: Planktonic MIC, CLSI guidelines. The format is cell-based. As to conditions: Fusarium oxysporum; strain DUMC Fo. Here is the method:
as §1

For the next test, the system named is A. terreus. The experiment in a line: Planktonic MIC, CLSI guidelines. The format is cell-based. The note with it: Aspergillus terreus; strain CFF S023.
The test system of test [1] is C. auris. The experiment in a line: Planktonic MIC, CLSI guidelines. Format: cell-based, Candida auris. As to conditions: Candidozyma auris. As for the experimental part:
as §1

In another test the test system is P. aeruginosa. The experiment in a line: Antibacterial MIC. The format is cell-based, Pseudomonas aeruginosa.
Test [2] deals with C. auris. The experiment in a line: Ex vivo porcine skin model of Candida auris colonization. As for the experimental part:
The collection of porcine skin samples was conducted under protocols approved by the University of Wisconsin-Madison Institutional Animal Care and Use Committee in accordance with published National Institutes of Health (NIH) and United States Department of Agriculture (USDA) guidelines. Excised skin was cleaned and shaved as described previously (Johnson et al., 2022). Full-thickness samples were obtained by 12 mm punch and placed in 12-well plates containing 3 mL Dulbecco's Modified Eagle Medium (DMEM) (Lonza, Walkersville, MD, USA) supplemented with 10% fetal bovine serum (FBS) (Atlanta biologicals, Lawrenceville, GA, USA), penicillin (1,000 U/mL), and streptomycin (1 mg/mL) (Corning, Manassas, VA, USA) for 6 hours. Tissues were rinsed in DBPS and moved to semi-solid media (6:4 ratio of 1% agarose (BIO-RAD, Hercules, CA, USA) in DPBS:DMEM with 10% FBS). Paraffin wax was applied around the edge of the skin and 10 μL C. auris suspended in synthetic sweat medium at 10^7 cells/mL was applied. Samples were incubated at 24 hours and compound A (8 μg/mL or 16 μg/mL) in synthetic sweat medium was applied. After 24 hours a sterile swab was used to remove compound from skin surface. Samples were vortexed in DPBS and plated on YPD+chloramphenicol to assess viable burden.

A further test concerns C. auris 0381 biofilms. Briefly: Biofilm phase antifungal activity assay (XTT reduction). The format is cell-based, Candida auris. As for the experimental part:
These assays were performed as previously described (Mao et al., 2020; Ramage et al., 2001). C. albicans and C. auris, overnight cultures were washed in sterile PBS and adjusted to 1×10^6 CFU/mL in RPMI+MOPS pH 7. 100 μL cells were added to each well and incubated at 37° C. for 24 hours. A two-fold dilution series of the compounds was prepared in RPMI+MOPS with equal vehicle concentrations. Media was removed and biofilms were gently washed with PBS, then 200 μL of each drug dilution was added to wells and plates were incubated at 37° C. for an additional 24 hours. Media was removed and biofilms were gently washed with PBS, then 100 μL of XTT solution (0.83 mg/mL XTT sodium salt [Sigma, Cat #X4626]+32 μg/mL PMS [Sigma, Cat #P9625] in PBS) was added to each well. Plates were incubated at 37° C. for 30 minutes, then the absorbance was measured at 490 nm.
The metabolic activity of the biofilms was then assayed using the standard XXT reduction assay (Ramage et al., 2001). […] The biofilm activity of compound A was reduced by 4-fold relative to planktonic growth (MIC 4 μg/mL, Table 2).
Background: Tetrazolium dyes change colour on reduction, which living cells bring about.

The MIC is the lowest concentration found to suppress growth.

Where two headings read alike, the source gives them in different places.

As to `Nc1cc[n+](CC(=O)c2ccc3c(c2)OC(c2ccccc2)(c2ccccc2)O3)cc1.[Cl-]` [Compound A], the MIC with A. fumigatus (strain AF293) worked out at 2 µg/mL; in the test on A. fumigatus (strain CEA10), 32 µg/mL; with A. fumigatus (strain CFF S001) it was 64 µg/mL; in the test with A. fumigatus (strain CFF S003), 4 µg/mL; with A. fumigatus (strain CFF S007), 64 µg/mL; in the test with A. fumigatus (strain CFF S008), 64 µg/mL. For the same compound, the minimal inhibitory concentration (MIC) with A. fumigatus (strain CFF S014) was 8 µg/mL; in the test on A. fumigatus (strain CFF S029) it was 4 µg/mL; in the test on A. fumigatus (strain Cas^R), 32 µg/mL; with A. fumigatus (strain SPF98), 64 µg/mL; in the test with C. glabrata it was 4 µg/mL; against C. neoformans (strain DUMC 118.00) it was 4 µg/mL. Moreover, the minimum inhibitory concentration (MIC) against C. neoformans (strain DUMC 122.01) is 4 µg/mL; in the test on C. neoformans (strain H99), 4 µg/mL; against F. oxysporum, 16 µg/mL; in the test with A. terreus, 2 to 4 µg/mL; in the test with C. auris [1] (strain 0381, drug susceptible), 8 µg/mL; in the test with C. auris [1] (strain 0390, multi-drug resistant), 2 µg/mL. For the same compound, the minimal inhibitory concentration (MIC) in the test on P. aeruginosa (Pseudomonas aeruginosa, strain PAO1) was determined as 64 µg/mL. Besides, in the test on P. aeruginosa (P. aeruginosa), the “activity compared to cetylpyridinium chloride” value was “more active”. Moreover, the “reduction of fungal burden of colonized porcine skin” value with C. auris [2] (8 μg/mL, 24 hours after a single treatment) is given as “about 1 log10”. Also, the “fungal burden of colonized porcine skin” value in the test with C. auris [2] (16 μg/mL versus 8 μg/mL, 24 hours) was “not reduced further”. Further, in the test with C. auris [2] (8 or 16 μg/mL, 24 hours), the “reduction of C. auris colonization of skin” value was “about 1 log10 CFU”. The “activity during planktonic and inanimate-substrate biofilm growth” value in the test with C. auris 0381 biofilms is “comparable activity”.

These data come from patent US20260274828A1, “BROAD SPECTRUM ANTIFUNGAL KETO-ALKYL-PYRIDINIUM COMPOUNDS” (priority 2023, published 2026).
